Here are results for 23 molecules from US8450366B2, “Isobenzofuran analogs of sclerophytin A” (Board of Trustees of the University of Arkansas, priority 2009, dated 2013).

Data set [1] deals with KB-3 human carcinoma cell line. As to the kind of experiment: MTT colorimetric assay of KB-3 cell viability. Format: cell-based. As to conditions: for IC50: KB-3 cells, 96 h treatment, triplicate, read-out: IC50, inhibition of KB-3 cell survival assessed by MTT viability assay. The method, then:
The human KB-3 carcinoma cell line was used to perform the MTT colorimetric assay of cell viability.(22-24) Cells were treated with increasing concentrations of compounds to assess their growth inhibitory properties. IC50 values (concentration of the drug required to reduce cell viability by 50%) ranged from 1 to >100 μM (Table 1).
Inhibition of cell proliferation was assessed by the MTT assay. This assay is based on the ability of a mitochondrial dehydrogenase enzyme from viable cells to cleave the tetrazolium rings of the pale yellow 3-(4,5-dimethylthiazol-2-yl)-2,5-diphenyltetrazolium bromide (MTT) and form a dark blue formazan crystal product which is largely impermeable to cell membranes, thus resulting in its accumulation within healthy cells.(22) Solubilization of the cells by the addition of solvent results in the liberation of the crystals which are solubilized. The level of the formazan product created is directly proportional to the number of living cells.(23,24)
All stock solutions of compounds were made at 10 mM in dimethyl sulfoxide (DMSO). DMSO and MTT were from Sigma Chemical Co. (St. Louis, Mo.). Cell culture reagents were obtained from Life Technologies (Carlsbad, Calif.). The KB-3 human carcinoma cell line was maintained in monolayer culture at 37° C. and 5% CO2 in Dulbecco's Modified Eagle's Medium, supplemented with 10% fetal bovine serum, 2 mM L-glutamine, 50 units/mL penicillin, and 50 μg/mL streptomycin.
KB-3 cells (2000/well) were plated in 96-well dishes, and after 24 h were treated with 0.1 nM-100 μM of the compound in question. […] After 96 h, cells were incubated with 50 μg MTT/well/0.2 mL for 4 h at 37° C., the media was removed, and the formazan crystals were dissolved in 0.15 mL of DMSO. Absorbance at 570 nm was measured with an ELx800™ Microplate Reader (Bio Tek Instruments, Inc., Winooski, Vt.). All treatments were performed in triplicate. Results are shown in FIGS. 1A-D as a percentage of control samples (mean±SD). IC50 is the concentration that reduced survival to 50% of the control (no drug).

For data set [2], the system named is 60-cell line screening. Kind of data set: NCI Developmental Therapeutics 60-cell line screening, single dose. Format: cell-based. As to conditions: NCI 60-cell line screening.
The subject of data set [3] is PC-3 prostate cancer cell line. Kind of data set: NCI 60-cell line single dose assay, PC-3. Format: cell-based.
The subject of data set [4] is RPMI-8226 leukemia cell line. Kind of data set: NCI 60-cell line single dose assay, RPMI-8226. Format: cell-based.
The test system of data set [5] is HOP-92 non-small cell lung cancer cell line. As to the kind of experiment: NCI 5-dose testing, HOP-92. Format: cell-based. The settings on record: 5-dose testing, read-out: LC50 (the source's name).
The subject of data set [6] is RPMI-8226 leukemia cell line. As to the kind of experiment: NCI 5-dose testing, RPMI-8226. Format: cell-based. The settings on record: 5-dose testing, read-out: LC50 (the source's name).
Data set [7] deals with NCI-H522 non-small cell lung cancer cell line. As to the kind of experiment: NCI 60-cell line single dose assay, NCI-H522. Format: cell-based.
Data set [8] deals with entire leukemia panel. Kind of data set: NCI 60-cell line single dose assay, leukemia panel. Format: cell-based.
The conditions of data set [9]: reported in the literature; cited from earlier work.
Data set [10] deals with L1210 cell line. The settings on record: reported, cited from earlier work.

≈ marks a conversion by molar mass, not a printed value. Where “and” joins values, the source holds several entries; their conditions need not be identical. Equal entries are not always repeated. Where two headings read alike, the source gives them in different places.

By IC50 is commonly meant the concentration needed to halve the response being measured. Take `C=C(C)[C@H]1CC=C(C)[C@@]2(O)[C@@H]1[C@H](c1ccccc1Br)O[C@@H]2C(=O)OC` [Compound 5a.i]: in data set [1], the IC50 was determined as 5 µM. For the molecule `C=C(C)[C@H]1CC=C(C)[C@@]2(O)[C@@H]1[C@H](c1ccccc1Br)O[C@@H]2C(=O)OCC1CC1` [Compound 5a.ii], in data set [1], the IC50 was 50 µM.

For `C=C(C)[C@H]1CC=C(C)[C@@]2(O)[C@@H]1[C@H](c1ccccc1Br)O[C@@H]2C(=O)OCC1CCCC1` [Compound 5a.iii], the IC50 in [1] was > 100 µM.

`C=C(C)[C@H]1CC=C(C)[C@@]2(O)[C@@H]1[C@H](c1ccccc1Br)O[C@@H]2C(=O)OCC` [Compound 5a]: the IC50 in data set [1] was ~20 µM and 20 µM. For the molecule `C=C(C)[C@H]1CC=C(C)[C@@]2(O)[C@@H]1[C@H](c1cccc(Br)c1)O[C@@H]2C(=O)OCC` [Compound 5b], the IC50 in data set [1] was found to be 3 µM. On the same count and under the same terms, to `C=C(C)[C@H]1CC=C(C)[C@@]2(O)[C@@H]1[C@H](c1cccc(Cl)c1Cl)O[C@@H]2C(=O)OCC` [Compound 5c] belongs 5 µM. Regarding `C=C(C)[C@H]1CC=C(C)[C@@]2(O)[C@@H]1[C@H](c1ccc(Cl)cc1Cl)O[C@@H]2C(=O)OCC` [Compound 5d], the “activity in single dose assays” value in data set [2] was “no significant activity”. In addition, the half-inhibitory concentration (IC50) in [1] amounted to 3 µM. For `C=C(C)[C@H]1CC=C(C)[C@@]2(O)[C@@H]1[C@H](c1cccc3ccccc13)O[C@@H]2C(=O)OC` [Compound 5e], the “fold more active than the corresponding diene 10e” value in data set [1] (KB-3 IC50, entry 8 vs. entry 18) is “at least 10 fold”. Besides, the IC50 in data set [1] was 10 µM. As for `C=C(C)[C@H]1CC=C(C)[C@@]2(O)[C@@H]1[C@H](c1ccccn1)O[C@@H]2C(=O)OC` [Compound 5f], the IC50 in data set [1] (Homo sapiens, KB3) amounted to 100 µM.

Regarding `C=C(C)[C@H]1CC=C(C)[C@@]2(O)[C@@H]1[C@H](c1cccc[n+]1C)O[C@@H]2C(=O)OC` [Compound 5i], in data set [1] (Homo sapiens, KB3), the IC50 is > 100 µM.

With `C=C(C)[C@H]1CC(=O)C(C)=C2[C@@H](C(=O)OCC)O[C@@H](c3ccccc3Br)[C@@H]21` [Compound 6a], the IC50 in [1] is ~70 µM and 70 µM. In the case of `C=C(C)[C@H]1CC(=O)C(C)=C2[C@@H](C(=O)OCC)O[C@@H](c3cccc(Br)c3)[C@@H]21` [Compound 6b], the IC50 in data set [1] was 30 µM. With `C=C(C)[C@H]1CC(=O)C(C)=C2[C@@H](C(=O)OCC)O[C@@H](c3cccc(Cl)c3Cl)[C@@H]21` [Compound 6c], the IC50 in data set [1] worked out at 5 µM. In the case of `C=C(C)[C@H]1CC(=O)C(C)=C2[C@@H](C(=O)OCC)O[C@@H](c3ccc(Cl)cc3Cl)[C@@H]21` [Compound 6d], the “differential activity, single dose” value in [3] and in data set [4] was “significant differential activity” each time. Moreover, in data set [1], the IC50 stood at 3 µM. As for `C=C(C)[C@H]1CC=C(C)[C@@]2(O)[C@@H]1[C@H](c1ccccc1Br)O[C@@H]2C(=O)O` [Compound 9], the IC50 in data set [1] is > 100 µM. The same measure, in the same setting: to `C=C(C)C1CC=C(C)C2=COC(c3ccccc3Br)C21` (centres unmarked) [Compound 10a] belongs 4 µM; to `C=C(C)C1CC=C(C)C2=COC(c3cccc4ccccc34)C21` (centres unmarked) [Compound 10e], > 100 µM.

With `C=C(C)C1CC=C(C)C2=COC(c3ccco3)C21` (centres unmarked) [Compound 10g], the IC50 in data set [1] was 2 µM. `C=C(C)C1CC=C(C)C2=COC(c3ccccc3F)C21` (centres unmarked) [Compound 10h]: the CC50 in data set [5] stood at 26.8 µM; in data set [6], 9.36 µM. For the same molecule, the “differential activity, single dose” value in data set [7] and in [8] was “significant differential activity” throughout. Also, the IC50 in data set [1] is 1 µM.

Turning to `CO[C@]12C=C[C@](C)(O1)[C@@H](OC(=O)/C=C/c1cn(C)cn1)C[C@H]1C(C)=CC[C@H](C(C)C)[C@H]1/C=C\2CO[C@@H]1OC[C@@H](O)[C@@H](O)[C@@H]1OC(C)=O` [Eleutherobin], the anti-mitotic activity result in data set [9] is “taxol-like anti-mitotic activity”.

On to `C=C1CC[C@H](C(C)C)[C@@H]2[C@H]1[C@H]1C[C@](C)(O)[C@@H](O)CC[C@@](C)(O)[C@@H]2O1` [Sclerophytin A], for which the IC50 in [10] (value in brackets, read-out: IC50, growth inhibitory activity against L1210) is 0.003 µM. The “IC50, growth inhibitory activity against L1210” value in [10] was 1.0 ng/mL (≈ 2.95 nM). Regarding `COC(=O)/C1=C/[C@@H]2[C@@H](C(C)C)CC=C(C)[C@@H]2C[C@H](OC(=O)/C=C/c2cn(C)cn2)[C@]2(C)C=C[C@@]1(O)O2` [sarcodictyins A, sarcodictyin A], the anti-mitotic activity entry in [9] was “taxol-like anti-mitotic activity”. For sarcodictyin B [sarcodictyins B], the anti-mitotic activity entry in data set [9] is given as “taxol-like anti-mitotic activity”.
